# Reference: patent US20040105857A1, “Methods and compositions for enhancing angiogenesis” (priority 2003, published 2004)
# How the values were obtained:
# [1] = test system: integrin; assay: Integrin-binding activity of mutant L1 peptide (data not shown)
# [2] = test system: chick chorioallantoic membrane (CAM); assay: Angiogenesis assay in the chick chorioallantoic membrane (CAM) model, vessel branch point count; format: in vivo; settings: for induction of angiogenic response (vessel branch points): within a defined concentration range
# Description: FIG. 1 depicts induction of angiogenesis by soluble L1-fusion protein containing the fourth, fifth, and sixth Ig-like domains of L1 (Ig 4-6). a. GST fusion proteins were made covering the entire extra-cellular domain of L1 and consisted of immunoglobulin like domains 1 through 3 (Ig1 3), immunoglobulin like domains 4 through 6 (Ig4-6), and FN type III like domains 1-5 (FN1 5). b. The L1-fusion proteins (Ig 1-3, Ig 4-6 or FN1-5) were tested for their ability to induce an angiogenic response in the chick chorioallantoic membrane (CAM) model. Filter discs each received 0.5 mg of Ig4-6 fusion protein ([…]) or equimolar amounts of the Ig 1-3, or FN1-5 fusion proteins. Negative or positive control groups received filter discs saturated with media alone or with bFGF respectively. Angiogenesis was quantified by counting the number of vessel branch points within the area of membrane immediately beneath the disc. The number of vessel branch points counted in the control group receiving media alone has been subtracted. Treatment groups consisted of a minimum of six embryos and experiments were performed on three separate occasions. c. […] Results obtained using bFGF or media alone are shown for comparison. Note that fine and highly branched angiogenic vessels can be distinguished from large preexisting vessels. Dotted lines delineate the area of the filter disc placed on the membrane. Excised membrane beneath and adjacent to the filter discs were photographed using an Olympus SZH10 Research Stereo microscope at 15×.
# FIG. 2 depicts induction of angiogenesis by a L1-RGD peptide and by a function blocking antibody to β1 integrins. a. The L1 peptide PSITWRGDGRDLQEL or the mutant L1 peptide PSITWRADGRDLQEL were tested for their ability to induce an angiogenic response in the chick CAM model. b. Function blocking antibodies to chick avβ3 (LM609) or to chick β1-intgrins (CSAT) were also tested. […] Angiogenesis was quantified by counting the number of vessel branch points within the area of membrane immediately beneath the disc. The number of vessel branch points counted in the control group receiving media alone has been subtracted. c. […]
# FIG. 3 depicts induction of angiogenesis by L1 cleavage products. a. […] Untreated and digested L1 (trypsin free) was then analyzed by SDS polyacrylamide gel electrophoresis (5-15% gradient). b. Sites of trypsin cleavage were determined by amino terminal sequencing and are shown schematically. c. […] Angiogenesis was quantified by counting the number of vessel branch points within the area of membrane immediately beneath the disc.
# Angiogenesis assay. Angiogenesis was assessed using the chick chorioallantoic membrane (CAM) model which has been extensively described^54. […]
# [3] = test system: HDMEC or ECV304 avb3(−) cell adhesion to fibronectin; assay: Cell adhesion to fibronectin (data not shown); format: cell-based; parameters: effect on cell adhesion to fibronectin: dose or concentration left out as unconfirmed
# Description: The extent to which the L1 polypeptide or L1-RGD peptide alters adhesivity between endothelial cells, or endothelial cells and the subendothelial matrix remains to be determined. However, at a high molarity (250 uM) the L1-RGD peptide abrogated 30-40% of HDMEC or ECV304 avb3(−) cell adhesion to fibronectin (data not shown). […] This would certainly be consistent with the fact that both αvβ3 and αvβ1 can promote cell adhesion or spreading on fibronectin^37-38.
# [4] = target: T1, αvβ1 expressed by endothelial cells (Homo sapiens, UniProt P05556+P06756); settings: reference 18; cited from earlier work
# T1 construct: αvβ1 expressed by endothelial cells; endogenous in cells
# T1 sequence (P06756 31-889 limits assumed): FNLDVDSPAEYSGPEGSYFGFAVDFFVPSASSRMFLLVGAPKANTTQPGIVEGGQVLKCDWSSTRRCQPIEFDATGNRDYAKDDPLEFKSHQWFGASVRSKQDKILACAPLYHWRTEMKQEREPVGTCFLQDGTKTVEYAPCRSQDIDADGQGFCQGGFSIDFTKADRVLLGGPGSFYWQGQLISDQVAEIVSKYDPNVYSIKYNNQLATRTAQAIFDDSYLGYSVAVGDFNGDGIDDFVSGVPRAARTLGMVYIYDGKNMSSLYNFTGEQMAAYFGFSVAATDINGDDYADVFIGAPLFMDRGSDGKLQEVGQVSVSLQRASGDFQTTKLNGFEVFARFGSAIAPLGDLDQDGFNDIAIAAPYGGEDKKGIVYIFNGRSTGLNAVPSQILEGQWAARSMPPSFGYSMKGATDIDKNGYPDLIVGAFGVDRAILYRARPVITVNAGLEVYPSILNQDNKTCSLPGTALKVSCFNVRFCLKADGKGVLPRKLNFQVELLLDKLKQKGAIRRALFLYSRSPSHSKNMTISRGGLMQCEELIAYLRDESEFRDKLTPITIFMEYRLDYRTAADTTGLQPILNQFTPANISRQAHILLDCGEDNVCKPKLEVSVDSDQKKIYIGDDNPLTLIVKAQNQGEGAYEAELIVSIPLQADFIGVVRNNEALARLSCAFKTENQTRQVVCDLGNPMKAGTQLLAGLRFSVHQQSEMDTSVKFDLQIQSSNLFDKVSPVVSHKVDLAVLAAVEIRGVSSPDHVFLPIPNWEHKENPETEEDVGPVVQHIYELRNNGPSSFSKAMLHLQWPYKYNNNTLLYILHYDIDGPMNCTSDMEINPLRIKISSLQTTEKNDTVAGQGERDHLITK
# T1 sequence (P06756 891-1048 limits assumed): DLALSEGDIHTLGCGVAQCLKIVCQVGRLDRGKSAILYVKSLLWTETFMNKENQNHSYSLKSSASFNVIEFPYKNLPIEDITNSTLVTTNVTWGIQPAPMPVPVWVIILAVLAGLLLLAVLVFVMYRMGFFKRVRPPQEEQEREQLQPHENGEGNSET
# T1 sequence (P05556 21-798): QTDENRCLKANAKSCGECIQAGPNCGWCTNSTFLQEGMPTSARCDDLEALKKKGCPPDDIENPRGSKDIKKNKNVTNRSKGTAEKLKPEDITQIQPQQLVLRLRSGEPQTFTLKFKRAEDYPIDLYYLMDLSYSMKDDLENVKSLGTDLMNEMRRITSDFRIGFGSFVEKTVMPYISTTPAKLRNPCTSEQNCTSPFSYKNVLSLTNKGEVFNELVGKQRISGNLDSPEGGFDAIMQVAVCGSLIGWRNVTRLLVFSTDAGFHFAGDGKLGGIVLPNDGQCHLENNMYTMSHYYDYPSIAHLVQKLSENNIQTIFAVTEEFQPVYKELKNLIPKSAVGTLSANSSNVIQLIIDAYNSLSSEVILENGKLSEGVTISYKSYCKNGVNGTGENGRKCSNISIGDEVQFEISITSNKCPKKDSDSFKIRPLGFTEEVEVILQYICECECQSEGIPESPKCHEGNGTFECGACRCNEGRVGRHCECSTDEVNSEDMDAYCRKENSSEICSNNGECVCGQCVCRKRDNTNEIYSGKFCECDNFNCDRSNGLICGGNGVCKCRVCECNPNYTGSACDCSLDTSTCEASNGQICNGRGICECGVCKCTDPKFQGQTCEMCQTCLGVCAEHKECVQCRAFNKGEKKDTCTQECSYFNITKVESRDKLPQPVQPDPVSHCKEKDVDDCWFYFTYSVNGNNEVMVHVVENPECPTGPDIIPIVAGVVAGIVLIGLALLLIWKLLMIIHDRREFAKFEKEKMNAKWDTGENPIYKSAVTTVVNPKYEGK
integrin-binding activity [1],Sequence,"angiogenic activity compared with an equivalent concentration of the wildtype peptide ([2]; L1 peptides, 0.01-5 mg/disc)","induction of angiogenic response (vessel branch points) ([2]; L1 peptides, 0.01-5 mg/disc)",angiogenic response at high concentration ([2]; high concentration of peptide or antibody),"cell adhesion to fibronectin abrogated ([3]; 250 uM peptide, HDMEC or ECV304 avb3(−) cells)",effect on cell adhesion to fibronectin ([3]; lower proangiogenic concentrations),recognition by αvβ1 [4]
retained some integrin-binding activity,PSITWRADGRDLQEL [15-mer L1 peptide containing the mutation RGD to RAD; control peptide],significantly less proangiogenic,some angiogenic activity,–,–,–,–
–,PSITWRGDGRDLQEL [L1-RGD peptide],–,proangiogenic,not effective,30-40%,did not overtly prevent adhesion,recognized by αvβ1
